Results on seven molecules are retold here after paper PMC8775252, “Characterization of Alternaria porri causing onion purple blotch and its antifungal compound magnolol identified from Caryodaphnopsis baviensis” (PLoS ONE, 2022).

The subject of series [1] is Magnaporthe oryzae. Nature of the series: microbe, parasite or virus in culture. Format: cell-based. To be noted: Pyricularia oryzae, 72 h; 3 days, 25°C.
The test system of series [2] is Colletotrichum cocodes. Nature of the series: microbe, parasite or virus in culture. Format: cell-based. To be noted: 72 h, 3 days, 25°C.
For series [3], the system named is Phytophthora infestans. The experiment in a line: microbe, parasite or virus in culture. Format: cell-based. To be noted: 72 h, 3 days, 25°C.
Series [4] deals with Botrytis cinerea. The experiment in a line: microbe, parasite or virus in culture. In kind it is cell-based. To be noted: 72 h, 3 days, 25°C.
Series [5] concerns Fusarium oxysporum. The experiment in a line: microbe, parasite or virus in culture. In kind it is cell-based, Fusarium oxysporum f. sp. lycopersici. To be noted: 72 h, 3 days, 25°C.
In series [6] the test system is Alternaria porri. Nature of the series: microbe, parasite or virus in culture. In kind it is cell-based. To be noted: 72 h, 3 days, 25°C.
The test system of series [7] is Alternaria brassicicola. The experiment in a line: microbe, parasite or virus in culture. In kind it is cell-based. To be noted: 72 h, 3 days, 25°C.
The target of series [8] is OXPHOS complex II (Bos taurus, UniProt P31039+P35720+Q3T189+Q95123). Nature of the series: biochemical.
Sequence of OXPHOS complex II (Q95123 56-158): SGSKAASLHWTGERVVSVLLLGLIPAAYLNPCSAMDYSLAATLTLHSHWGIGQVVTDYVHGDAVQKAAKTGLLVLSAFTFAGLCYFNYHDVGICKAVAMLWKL
Sequence of OXPHOS complex II (P31039 44-665): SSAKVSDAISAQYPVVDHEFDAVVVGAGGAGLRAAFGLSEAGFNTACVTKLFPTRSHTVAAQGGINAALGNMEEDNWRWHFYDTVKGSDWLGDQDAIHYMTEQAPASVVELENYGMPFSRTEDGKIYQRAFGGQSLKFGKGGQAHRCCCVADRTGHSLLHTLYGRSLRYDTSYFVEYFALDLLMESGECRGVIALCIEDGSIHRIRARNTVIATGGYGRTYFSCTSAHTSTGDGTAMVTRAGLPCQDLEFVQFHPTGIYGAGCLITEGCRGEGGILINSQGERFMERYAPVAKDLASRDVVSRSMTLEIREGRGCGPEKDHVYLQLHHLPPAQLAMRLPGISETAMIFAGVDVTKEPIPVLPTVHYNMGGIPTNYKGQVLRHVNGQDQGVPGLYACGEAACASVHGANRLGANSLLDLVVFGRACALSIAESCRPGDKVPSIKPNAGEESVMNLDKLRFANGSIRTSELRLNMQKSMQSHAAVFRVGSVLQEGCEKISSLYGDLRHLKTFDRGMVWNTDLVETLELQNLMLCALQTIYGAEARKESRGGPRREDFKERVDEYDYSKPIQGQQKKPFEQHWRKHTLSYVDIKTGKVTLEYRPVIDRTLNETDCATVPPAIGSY
Sequence of OXPHOS complex II (P35720 30-169): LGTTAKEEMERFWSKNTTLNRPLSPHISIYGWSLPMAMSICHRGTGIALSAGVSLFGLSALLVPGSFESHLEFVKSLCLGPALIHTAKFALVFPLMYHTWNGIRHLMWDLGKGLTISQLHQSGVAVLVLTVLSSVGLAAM
Sequence of OXPHOS complex II (Q3T189 29-280): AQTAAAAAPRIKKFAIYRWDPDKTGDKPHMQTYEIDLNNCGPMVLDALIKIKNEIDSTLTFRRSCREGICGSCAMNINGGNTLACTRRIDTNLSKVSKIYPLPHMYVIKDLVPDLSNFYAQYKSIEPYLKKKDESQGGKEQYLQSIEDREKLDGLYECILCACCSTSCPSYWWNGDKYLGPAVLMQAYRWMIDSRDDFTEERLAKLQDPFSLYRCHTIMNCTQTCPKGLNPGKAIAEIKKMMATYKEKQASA
The target in series [9] is OXPHOS complex III (Bos taurus, UniProt P00125+P00157+P13272). Format: biochemical.
For series [10], the system named is Alternaria porri. Nature of the series: microbe, parasite or virus in culture. In kind it is cell-based.
Series [11] concerns onion plants. To be noted: in vivo.
For series [12], the system named is Alternaria porri. The experiment in a line: microbe, parasite or virus in culture. In kind it is cell-based. The source holds these as a separate data set.
Series [13] relates to OXPHOS complex I. In kind it is biochemical.
Series [14] concerns the target OXPHOS complex V (Bos taurus, UniProt P00829+P19483). Nature of the series: MitoTox Complete OXPHOS Activity Assay. Format: biochemical.
The conditions of series [15]: in vivo, cited from earlier work.
Series [16] concerns the target OXPHOS complex IV (Bos taurus, UniProt P00396+P68530). The experiment in a line: biochemical.
Series [17] concerns onion purple blotch (Alternaria porri). Format: in vivo, Allium cepa L. To be noted: sprayed at 100 μg/ml, 5 dpi.

In brackets after ≈: the same amount, converted by molar mass. Like-named read-outs stand apart in the source and are kept apart here.

`C[C@@H]1C[C@@H]([C@H](O)CC2CC(=O)NC(=O)C2)C(=O)[C@@H](C)C1` [Cycloheximide, cycloheximide, reference compound]: the MIC is 6.3 µg/mL (≈ 22.4 µM) in series [1]; 1.6 µg/mL (≈ 5.69 µM) in [2]; 1.6 µg/mL (≈ 5.69 µM) in series [3]; 50 µg/mL (≈ 178 µM) in series [4]; 200 µg/mL (≈ 711 µM) in series [5]; 6.3 µg/mL (≈ 22.4 µM) in series [6]. Moreover, the MIC in [7] stood at 6.3 µg/mL (≈ 22.4 µM).
Regarding `O=C(CC(=O)C(F)(F)F)c1cccs1` [TTFA, thenoyltrifluoroacetone, reference compound], in series [8], the “effect on complex II activity” value was “suppressed each complex activity in a concentration-dependent manner”.
`CCCCCC[C@H]1C(=O)O[C@H](C)[C@H](NC(=O)c2cccc(NC=O)c2O)C(=O)O[C@@H](C)[C@@H]1OC(=O)CC(C)C` [antimycin A, reference compound]: in series [9], the “effect on complex III activity” value is “suppressed each complex activity in a concentration-dependent manner”.
`C=CCc1ccc(O)c(-c2cc(CC=C)ccc2O)c1` [magnolol, 5,5’-di-2-propenyl-1,1’-biphenyl-2,2’-diol]: in [10], the “inhibitory activity on mycelial growth compared with mancozeb” value is on record as “more potent than that of the broad-spectrum fungicide mancozeb”. In addition, the IC50 came to 5.4 µg/mL (≈ 20.3 µM) in series [10] (Alternaria porri, 168 h, read-out: IC50, mycelial growth); 19.4 µM in [9] (read-out: IC50, complex III activity); 8.3 µM in series [8]; 4.5 µg/mL (≈ 16.9 µM) in [12] (10 h, read-out: IC50, spore germination); 4.7 µM in [14] (read-out: IC50, complex V activity); 10.9 µM in [16]. The MIC in series [10] (Alternaria porri, read-out: MIC, mycelial growth completely inhibited) is 100 µg/mL (≈ 375 µM); in [1] it was 3.1 µg/mL (≈ 11.6 µM); in [2] it was 6.3 µg/mL (≈ 23.7 µM); in series [3], over 100 µg/mL; in series [4] it was 25 µg/mL (≈ 93.9 µM); in [12] (read-out: MIC, spore germination completely inhibited) it was 11 µg/mL (≈ 41.3 µM). The MIC was 25 µg/mL (≈ 93.9 µM) in [5], 6.3 µg/mL (≈ 23.7 µM) in series [6] and 6.3 µg/mL (≈ 23.7 µM) in [7]. Further, the phytotoxic symptoms result in series [11] is listed as “no phytotoxic symptoms”. Further, the “activity of complex I” value in [13] worked out at 78%. Moreover, the “effect on complex I activity” value in [13] is listed as “decreased by the magnolol treatment in a concentration-dependent manner”. Besides, the “excreted in the feces and urine” value in [15] (po) is given as over 90%. Also, the “oral dose remaining circulating in the free form” value in series [15] is recorded as 1%.
`CC[C@H]1/C=C/C=C/C[C@@H](C)[C@H](O)[C@@](C)(O)C(=O)[C@@H](C)[C@H](O)[C@@H](C)C(=O)[C@@H](C)[C@H](O)[C@@H](C)/C=C/C(=O)O[C@@H]2[C@H](C)[C@H](CC1)O[C@]1(CC[C@H](C)[C@H](C[C@@H](C)O)O1)[C@H]2C` [oligomycin, reference compound]: the “effect on complex V activity” value in series [14] (result in words, S6 Fig) is “suppressed each complex activity in a concentration-dependent manner”.
Take `C=C(C)[C@H]1Cc2c(ccc3c2O[C@@H]2COc4cc(OC)c(OC)cc4[C@@H]2C3=O)O1` [rotenone, reference compound]: the “effect on complex I activity” value in [13] was “suppressed each complex activity in a concentration-dependent manner”.
mancozeb came in with a disease control value in series [17] of 95%.

As usually defined, the IC50 is the midpoint of a concentration-inhibition curve.
